Data set [1] deals with Clostridioides difficile. As to the kind of experiment: Antibacterial activity against Clostridioides difficile ATCC 43255 assessed as inhibition of bacterial growth measured after 24 hrs by CLSI based broth dilution method. The class given is functional.
For data set [2], the system named is Staphylococcus aureus. As to the kind of experiment: Antibacterial activity against Staphylococcus aureus ATCC 4330 assessed as inhibition of bacterial growth measured after 16 to 24 hrs by CLSI based broth dilution method. Type of data set: functional. The conditions noted are these: time 16-24 hrs.
Data set [3] concerns Staphylococcus aureus. Nature of the data set: Antibacterial activity against methicillin-resistant Staphylococcus aureus assessed as inhibition of bacterial growth measured after 16 to 24 hrs by CLSI based broth dilution method. The class given is functional. The conditions noted are these: time 16-24 hrs.
Data set [4] can be described thus: Aqueous kinetic solubility of the compound at pH 7.4 incubated for 2 hrs by UPLC-MS analysis. Type of data set: physicochemical. As to conditions: read-out: Kinetic_solubility.
For data set [5], the system named is Clostridioides difficile. Nature of the data set: Antibacterial activity against Clostridioides difficile RT130/ST5/A+B+CDT+ assessed as inhibition of bacterial growth measured after 24 hrs by CLSI based broth dilution method. The class given is functional.
In data set [6] the test system is Clostridioides difficile. As to the kind of experiment: Antibacterial activity against Clostridioides difficile NT/ST67/A+B+CDT+ assessed as inhibition of bacterial growth measured after 24 hrs by CLSI based broth dilution method. The class given is functional.
In data set [7] the test system is Clostridioides difficile. Nature of the data set: Antibacterial activity against Clostridioides difficile RT027/ST1/A+B+CDT+ assessed as inhibition of bacterial growth measured after 24 hrs by CLSI based broth dilution method. The class given is functional.
The subject of data set [8] is Clostridioides difficile. As to the kind of experiment: Antibacterial activity against Clostridioides difficile RT293/ST129/A+B+ assessed as inhibition of bacterial growth measured after 24 hrs by CLSI based broth dilution method. Type of data set: functional.
The test system of data set [9] is Clostridioides difficile. Nature of the data set: Antibacterial activity against Clostridioides difficile RT014/ST14/A+B+ assessed as inhibition of bacterial growth measured after 24 hrs by CLSI based broth dilution method. The class given is functional.
Data set [10] relates to Clostridioides difficile. As to the kind of experiment: Antibacterial activity against Clostridioides difficile RT001/ST3/A+B+ assessed as inhibition of bacterial growth measured after 24 hrs by CLSI based broth dilution method. Type of data set: functional.
In data set [11] the test system is Clostridioides difficile. As to the kind of experiment: Antibacterial activity against Clostridioides difficile RT012/ST54/A+B+ assessed as inhibition of bacterial growth measured after 24 hrs by CLSI based broth dilution method. Type of data set: functional.
The subject of data set [12] is Clostridioides difficile. Nature of the data set: Antibacterial activity against Clostridioides difficile RT002/ST8/A+B+ assessed as inhibition of bacterial growth measured after 24 hrs by CLSI based broth dilution method. The class given is functional.
The subject of data set [13] is Clostridioides difficile. Nature of the data set: Antibacterial activity against Clostridioides difficile RT017/ST37/A-B+ assessed as inhibition of bacterial growth measured after 24 hrs by CLSI based broth dilution method. Type of data set: functional.
In data set [14] the test system is Clostridioides difficile. Nature of the data set: Antibacterial activity against Clostridioides difficile NT/ST221/A+B+CDT+ assessed as inhibition of bacterial growth measured after 24 hrs by CLSI based broth dilution method. Type of data set: functional.
In data set [15] the test system is Clostridioides difficile. As to the kind of experiment: Antibacterial activity against Clostridioides difficile RT078/ST11/A+B+CDT+ assessed as inhibition of bacterial growth measured after 24 hrs by CLSI based broth dilution method. Type of data set: functional.
The subject of data set [16] is Clostridioides difficile. As to the kind of experiment: Antibacterial activity against Clostridioides difficile RT015/ST35/A+B+ assessed as inhibition of bacterial growth measured after 24 hrs by CLSI based broth dilution method. The class given is functional.
For data set [17], the system named is Clostridioides difficile. As to the kind of experiment: Antibacterial activity against Clostridioides difficile RT018/ST17/A+B+ assessed as inhibition of bacterial growth measured after 24 hrs by CLSI based broth dilution method. The class given is functional.

Converted amounts (≈) assume the structure as drawn.

Consider `C/C=C1\NC(=O)[C@H]([C@@H](C)O)NC(=O)c2csc(n2)-c2ccc(-c3nc(-c4nc(C(=O)NC5(C(=O)NCCCN6CCOCC6)CC5)cs4)cs3)nc2-c2csc(n2)[C@H]([C@@H](C)O)NC(=O)c2csc(n2)[C@H](C(C)C)NC(=O)c2csc1n2`, for which the MIC in the data set on Clostridioides difficile [1] and in the data set on Staphylococcus aureus [2] was 1 µg/mL (≈ 0.824 µM) throughout.

For `C/C=C1\NC(=O)[C@H]([C@@H](C)O)NC(=O)c2csc(n2)-c2ccc(-c3nc(-c4nc(C(=O)NC5(C(=O)NCCN6CCOCC6)CC5)cs4)cs3)nc2-c2csc(n2)[C@H]([C@@H](C)O)NC(=O)c2csc(n2)[C@H](C(C)C)NC(=O)c2csc1n2`, the MIC in the data set with Clostridioides difficile [1] was found to be 2 µg/mL (≈ 1.67 µM); in the data set with Staphylococcus aureus [2], 1 µg/mL (≈ 0.834 µM).

In the case of `C/C(=C\C(=O)OCCCCCCCCC(=O)O)C[C@@H]1OC[C@H](C[C@@H]2O[C@H]2[C@@H](C)[C@H](C)O)[C@@H](O)[C@H]1O` [MUPIROCIN], the MIC50 in the data set with Staphylococcus aureus [3] was over 8 µg/mL.

On to `C/C=C(\NC(=O)c1csc(-c2csc(-c3ccc4c(n3)-c3csc(n3)[C@H]([C@@H](C)O)NC(=O)c3csc(n3)[C@H](C(C)C)NC(=O)c3csc(n3)/C(=C/C)NC(=O)[C@H]([C@@H](C)O)NC(=O)c3csc-4n3)n2)n1)C(=O)NCCCN1CCOCC1`, for which the results for the MIC with Clostridioides difficile [1] and in the data set with Staphylococcus aureus [2] were 0.5 µg/mL (≈ 0.412 µM) and 1 µg/mL (≈ 0.824 µM), respectively.

As to `C/C=C(\NC(=O)c1csc(-c2csc(-c3ccc4c(n3)-c3csc(n3)[C@H]([C@@H](C)O)NC(=O)c3csc(n3)[C@H](C(C)C)NC(=O)c3csc(n3)/C(=C/C)NC(=O)[C@H]([C@@H](C)O)NC(=O)c3csc-4n3)n2)n1)C(=O)NCC(C)=O`, the minimal inhibitory concentration (MIC) in the data set with Clostridioides difficile [1] is 1 µg/mL (≈ 0.875 µM); with Staphylococcus aureus [2], 0.5 µg/mL (≈ 0.438 µM). In [4], the solubility kinetic at 2 h came to 0.07 µg/mL (≈ 0.0613 µM).

For `C/C=C1\NC(=O)[C@H]([C@@H](C)O)NC(=O)c2csc(n2)-c2ccc(-c3nc(-c4nc(C(=O)NC5(C(=O)NCCCN6CCN(C(C)C)CC6)CC5)cs4)cs3)nc2-c2csc(n2)[C@H]([C@@H](C)O)NC(=O)c2csc(n2)[C@H](C(C)C)NC(=O)c2csc1n2.Cl`, in data set [4], the solubility kinetic at 2 h was 2.8 µg/mL.

For `C/C=C(\NC(=O)c1csc(-c2csc(-c3ccc4c(n3)-c3csc(n3)[C@H]([C@@H](C)O)NC(=O)c3csc(n3)[C@H](C(C)C)NC(=O)c3csc(n3)/C(=C/C)NC(=O)[C@H]([C@@H](C)O)NC(=O)c3csc-4n3)n2)n1)C(=O)NCCn1cc([N+](=O)[O-])nc1C`, the MIC with Clostridioides difficile [1] amounted to 0.25 µg/mL (≈ 0.202 µM); with Staphylococcus aureus [2], 1 µg/mL (≈ 0.807 µM).

Turning to `C/C=C1\NC(=O)[C@H]([C@@H](C)O)NC(=O)c2csc(n2)-c2ccc(-c3nc(-c4nc(C(=O)NC5(C(=O)NCCn6cc([N+](=O)[O-])nc6C)CC5)cs4)cs3)nc2-c2csc(n2)[C@H]([C@@H](C)O)NC(=O)c2csc(n2)[C@H](C(C)C)NC(=O)c2csc1n2`, the MIC is 0.5 µg/mL (≈ 0.403 µM) in the data set on Clostridioides difficile [1] and 1 µg/mL (≈ 0.807 µM) with Staphylococcus aureus [2].

With `C/C=C1\NC(=O)[C@H]([C@@H](C)O)NC(=O)c2csc(n2)-c2ccc(-c3nc(-c4nc(C(=O)NC5(C(=O)NCCN6C(=O)CNC6=O)CC5)cs4)cs3)nc2-c2csc(n2)[C@H]([C@@H](C)O)NC(=O)c2csc(n2)[C@H](C(C)C)NC(=O)c2csc1n2`, the MIC in the data set on Clostridioides difficile [1] was over 16 µg/mL; with Staphylococcus aureus [2] it was 1 µg/mL (≈ 0.825 µM).

As for `C/C=C(\NC(=O)c1csc(-c2csc(-c3ccc4c(n3)-c3csc(n3)[C@H]([C@@H](C)O)NC(=O)c3csc(n3)[C@H](C(C)C)NC(=O)c3csc(n3)/C(=C/C)NC(=O)[C@H]([C@@H](C)O)NC(=O)c3csc-4n3)n2)n1)C(=O)NCCN1CCOCC1`, the MIC in the data set on Clostridioides difficile [1] and with Staphylococcus aureus [2] was 1 µg/mL (≈ 0.834 µM) throughout.

Turning to `C/C=C1\NC(=O)[C@H]([C@@H](C)O)NC(=O)c2csc(n2)-c2ccc(-c3nc(-c4nc(C(=O)NC5(C(=O)NCCCN6C(=O)CNC6=O)CC5)cs4)cs3)nc2-c2csc(n2)[C@H]([C@@H](C)O)NC(=O)c2csc(n2)[C@H](C(C)C)NC(=O)c2csc1n2`, the MIC with Clostridioides difficile [5] was 0.5 µg/mL (≈ 0.408 µM); with Clostridioides difficile [6], 0.5 µg/mL (≈ 0.408 µM); with Clostridioides difficile [7], 0.5 µg/mL (≈ 0.408 µM); in the data set on Clostridioides difficile [8], 0.5 µg/mL (≈ 0.408 µM); in the data set with Clostridioides difficile [9], 0.5 µg/mL (≈ 0.408 µM); in the data set with Clostridioides difficile [10], 0.25 µg/mL (≈ 0.204 µM). Further, the MIC came out at 0.5 µg/mL (≈ 0.408 µM) with Clostridioides difficile [11]; 0.5 µg/mL (≈ 0.408 µM) with Clostridioides difficile [12]; 0.5 µg/mL (≈ 0.408 µM) in the data set on Clostridioides difficile [13]; 0.125 µg/mL (≈ 0.102 µM) with Clostridioides difficile [1]; 0.5 µg/mL (≈ 0.408 µM) in the data set on Clostridioides difficile [14]; 0.5 µg/mL (≈ 0.408 µM) in the data set on Clostridioides difficile [15]. In addition, the MIC in the data set on Clostridioides difficile [16] was found to be 0.25 µg/mL (≈ 0.204 µM); in the data set with Staphylococcus aureus [2] it was 1 µg/mL (≈ 0.815 µM); in the data set with Clostridioides difficile [17], 0.25 µg/mL (≈ 0.204 µM).

On to `C/C=C(\NC(=O)c1csc(-c2csc(-c3ccc4c(n3)-c3csc(n3)[C@H]([C@@H](C)O)NC(=O)c3csc(n3)[C@H](C(C)C)NC(=O)c3csc(n3)/C(=C/C)NC(=O)[C@H]([C@@H](C)O)NC(=O)c3csc-4n3)n2)n1)C(=O)NCCN1CCN(C(C)C)CC1.Cl`, for which the solubility kinetic at 2 h in data set [4] stood at 3 µg/mL.

Regarding `C/C=C1\NC(=O)[C@H]([C@@H](C)O)NC(=O)c2csc(n2)-c2ccc(-c3nc(-c4nc(C(=O)NC5(C(=O)NCCn6ccnc6[N+](=O)[O-])CC5)cs4)cs3)nc2-c2csc(n2)[C@H]([C@@H](C)O)NC(=O)c2csc(n2)[C@H](C(C)C)NC(=O)c2csc1n2`, the MIC in the data set on Clostridioides difficile [1] was 0.5 µg/mL (≈ 0.408 µM); in the data set on Staphylococcus aureus [2], 1 µg/mL (≈ 0.816 µM).

On to `C/C=C1\NC(=O)[C@H]([C@@H](C)O)NC(=O)c2csc(n2)-c2ccc(-c3nc(-c4nc(C(=O)NC5(C(=O)NCCCN6CCN(C(C)C)CC6)CC5)cs4)cs3)nc2-c2csc(n2)[C@H]([C@@H](C)O)NC(=O)c2csc(n2)[C@H](C(C)C)NC(=O)c2csc1n2`, for which the MIC in the data set on Clostridioides difficile [1] and in the data set on Staphylococcus aureus [2] was 1 µg/mL (≈ 0.797 µM) each time. Further, the solubility kinetic at 2 h in [4] was 120 µg/mL (≈ 95.6 µM).

For `C/C=C(\NC(=O)c1csc(-c2csc(-c3ccc4c(n3)-c3csc(n3)[C@H]([C@@H](C)O)NC(=O)c3csc(n3)[C@H](C(C)C)NC(=O)c3csc(n3)/C(=C/C)NC(=O)[C@H]([C@@H](C)O)NC(=O)c3csc-4n3)n2)n1)C(=O)NCCn1ccnc1[N+](=O)[O-]`, the MIC in the data set with Clostridioides difficile [1] worked out at 0.5 µg/mL (≈ 0.408 µM); in the data set with Staphylococcus aureus [2], 1 µg/mL (≈ 0.816 µM).

On to `C/C=C1\NC(=O)[C@H]([C@@H](C)O)NC(=O)c2csc(n2)-c2ccc(-c3nc(-c4nc(C(=O)NC5(C(=O)NCCn6c([N+](=O)[O-])cnc6C)CC5)cs4)cs3)nc2-c2csc(n2)[C@H]([C@@H](C)O)NC(=O)c2csc(n2)[C@H](C(C)C)NC(=O)c2csc1n2`, for which the MIC in the data set with Clostridioides difficile [1] and in the data set with Staphylococcus aureus [2] was 0.5 µg/mL (≈ 0.403 µM) in each case.

Source of the values: ChEMBL document CHEMBL5370604, “Identification of Micrococcin P2-Derivatives as Antibiotic Candidates against Two Gram-Positive Pathogens” (J Med Chem, 2023).
